Data reported in the NIST ThermoML archive (doi:10.1016/j.fluid.2019.01.021).
± gives the expanded uncertainty stated by the source.

Details: Liquid, Capillary tube (Ostwald / Ubbelohde) method

CCC(C)CC(C)(C)C (stereo unspecified) [2,2,4-trimethylhexane]
293.15 K
Details | viscosity [mPa·s]
100 kPa | 0.64 ± 0.064
25000 kPa | 0.844 ± 0.084
50000 kPa | 1.101 ± 0.11
100000 kPa | 1.71 ± 0.17
150000 kPa | 2.54 ± 0.25
250000 kPa | 5.31 ± 0.56
350000 kPa | 10.67 ± 1.3
400000 kPa | 15 ± 2.1
500000 kPa | 30.9 ± 4.8
600000 kPa | 62.9 ± 12
700000 kPa | 126.9 ± 29
800000 kPa | 264 ± 79
900000 kPa | 558 ± 220
1000000 kPa | 1187

CC(C)CC(C)(C)C [2,2,4-trimethylpentane]
298.15 K
Details | viscosity [mPa·s]
100 kPa | 0.48 ± 0.047
26000 kPa | 0.641 ± 0.061
50000 kPa | 0.809 ± 0.076
100000 kPa | 1.207 ± 0.11
200000 kPa | 2.35 ± 0.23
312000 kPa | 4.41 ± 0.47
407000 kPa | 7.7 ± 0.89
499000 kPa | 12.63 ± 1.6
600000 kPa | 21.3 ± 3
700000 kPa | 36.4 ± 5.8
800000 kPa | 61.5 ± 11
900000 kPa | 104.8 ± 22
